Results published in patent US10550073B2, “Benzamide derivative” (CSPC ZHONGQI PHARMACEUTICAL TECHNOLOGY (SHIJIAZHUANG) CO., …, priority 2015, dated 2020).

Columns and labels:
[1] = tested on: TNF-α; test: In vitro cell experiment: LPS-stimulated TNF-α release in THP-1 cells (ELISA); type: cell-based; settings: Homo sapiens; TNF-α in supernatant of THP-1 cells, compound 2 h then LPS 10 μg/ml 2 h
Source text: I. In Vitro Cell Experiment
Cells: human monocytic leukemia THP-1 cells (obtained from the Shanghai Cell Bank of Chinese Academy of Sciences).
Lipopolysaccharides: from Escherichia coli O55: B5, L2880 (Sigma).
Kit: Human TNF-α Elisa MAX Deluxe Set, 430206 (Biolegend)

[2] = molecular target: p38a (Homo sapiens (Human), UniProt Q16539); test: Assay of p38 kinase activity (fluorescence, peptide substrate); type: biochemical; settings: 40 nM p38a, 100 μM ATP, 90 minutes
Sequence of p38a (Q16539 whole entry): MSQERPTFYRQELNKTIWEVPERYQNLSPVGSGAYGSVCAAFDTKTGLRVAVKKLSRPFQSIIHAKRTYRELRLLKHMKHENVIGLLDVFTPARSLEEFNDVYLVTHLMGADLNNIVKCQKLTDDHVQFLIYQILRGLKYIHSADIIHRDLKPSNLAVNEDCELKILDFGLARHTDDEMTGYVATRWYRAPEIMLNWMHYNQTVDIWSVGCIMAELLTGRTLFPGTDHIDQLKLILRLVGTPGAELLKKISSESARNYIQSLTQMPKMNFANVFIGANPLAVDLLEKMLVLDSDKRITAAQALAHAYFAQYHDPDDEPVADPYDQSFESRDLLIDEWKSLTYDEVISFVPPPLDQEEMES
Protocol: II. Assay of p38 Kinase Activity
Experimental Method: 40 nM p38a was added into a reaction buffer, which include 20 mM HEPES (4-hydroxyethylpiperazine ethanesulfonic acid), 5 mM MgCl2 and 1 mM DTT (dithiothreitol) at pH 7.4. 40 μM phosphorylated peptide substrate was added, followed by different concentrations of drugs and 100 μM ATP (adenosine triphosphate), and reacted for 90 minutes in dark. […] The IC50 values of the compounds were obtained according to the fluorescence values.

[3] = Pharmacokinetics experiment, oral administration to SD rats; type: in vivo; settings: Sprague-Dawley (SD), rat, plasma
Protocol: IV. Pharmacokinetics Experiment
Experimental Method: SD rats were orally administrated the compounds and the blood samples were taken from the eye orbit of the rat sat different time intervals after administration (0.25, 0.5, 1, 2, 4, 6, 8, 24, 48 h). The collected whole blood was anticoagulant by EDTA (Ethylene Diamine Tetraacetic Acid Sodium) and 3000 g of samples were centrifugated to obtain the rats' plasma samples, methanol or ethanol was used to precipitate proteins, the drug concentration of the rats' plasma samples was determined, the drug concentration-time curve was plotted to calculate the pharmacokinetic parameters. The pharmacokinetic behavior in rats after administration was described by non-compartmental models statistical moment parameter.
The pharmacokinetic experiments were carried out for the compounds.

[4] = molecular target: CYP450, 2C9 enzymes (Homo sapiens (Human), UniProt P11712); test: CYP450 enzyme inhibition test in human liver microsome; type: in vitro ADME; settings: CYP450 2C9, LC-MS/MS
Sequence of CYP450, 2C9 enzymes (P11712 whole entry): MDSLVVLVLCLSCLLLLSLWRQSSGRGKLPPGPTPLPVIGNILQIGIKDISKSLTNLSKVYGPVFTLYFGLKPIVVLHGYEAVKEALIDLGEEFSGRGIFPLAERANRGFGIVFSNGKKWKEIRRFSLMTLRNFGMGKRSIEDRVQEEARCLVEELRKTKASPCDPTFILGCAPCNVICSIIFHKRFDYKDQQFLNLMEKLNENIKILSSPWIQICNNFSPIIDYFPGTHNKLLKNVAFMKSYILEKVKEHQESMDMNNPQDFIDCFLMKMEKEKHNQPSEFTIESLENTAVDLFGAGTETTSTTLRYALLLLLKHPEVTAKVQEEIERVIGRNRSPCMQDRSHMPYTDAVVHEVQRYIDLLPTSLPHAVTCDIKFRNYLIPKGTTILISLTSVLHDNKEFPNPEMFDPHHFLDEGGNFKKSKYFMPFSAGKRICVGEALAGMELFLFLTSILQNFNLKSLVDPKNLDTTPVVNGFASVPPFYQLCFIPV

IC50 [1] [nM]	IC50 [2] [nM]	AUC(0-t) [3] [ng·h/mL]	IC50 [4] [nM]	Structure (SMILES)
< 5	< 5	22100	> 50000	Cc1c(F)cc(C(=O)NC2CC2)cc1-c1ccc(C(=O)NCC(C)C)nn1 [Example 57, 6-(5-(cyclopropylcarbamoyl)-3-fluoro-2-methylphenyl)-N-isobutylpyridazin-3-carboxamide]
< 5	< 5	12200	> 50000	Cc1c(F)cc(C(=O)NC2CC2)cc1-c1ccc(C(=O)NCC2CC2)nn1 [Example 61, 6-(5-(cyclopropylcarbamoyl)-3-fluoro-2-methylphenyl)-N-(cyclopropylmethyl) pyridazin-3-carboxamide]
< 5	< 5	11300	> 50000	Cc1c(F)cc(C(=O)NC2CC2)cc1-c1ccc(C(=O)NCC(C)(C)C)nn1 [Example 59, 6-(5-(cyclopropylcarbamoyl)-3-fluoro-2-methylphenyl)-N-neopentylpyridazin-3-carboxamide]

Structure (SMILES)	IC50 [1] [nM]	IC50 [2] [nM]	AUC(0-t) [3] [ng·h/mL]	IC50 [4] [nM]
Cc1c(F)cc(C(=O)NC2CC2)cc1-c1ccc(C(=O)NCC(C)(C)C)cn1 [Comparative example, 6-(5-(cyclopropylcarbamoyl)-3-fluoro-2-methylphenyl)-N-neopentylnicotinamide, reference compound]	10 to 20		9630	
